# Several values for one entry are separate records, joined by “and”; a condition that tells them apart may be missing. Equal values may be shown once.
# What was measured:
# AMP KINASE [1] = assay: AMP KINASE phosphorylation, cell-based fluorescent ELISA (BioAssay Systems)
# Description: The compounds of the present invention were tested for their activity on AMP KINASE. The activity on AMP KINASE was evaluated by quantitative fluorescent immunoenzymatic assay of AMP KINASE phosphorylation status in cultured cells. The 5-AMP-activated protein kinase (AMP KINASE) is a key sensor of intracellular energy balance. AMP KINASE is activated in response to an increase in the AMP/ATP ratio which can be caused by a number of factors such as muscle contraction, starvation, or hypoxia. AMP KINASE is a heterotrimeric protein complex comprising of α—(63 kDa), β—(38 kDa) and γ—(38 kDa) subunits. For each subunit, isoforms have been identified (α1, α2, β1, β2, γ1, γ2, γ3) which theoretically allow the formation of 12 different proteins. The α-subunit contains a serine/threonine kinase domain and the regulatory subunits contain binding sites for AMP and ATP (γ-subunit) and for glycogen (β-subunit). AMP KINASE is activated by phosphorylation on Thr-172 within the catalytic domain. AMP binding results in a 2 to 5-fold increase in AMP KINASE activity compared to the basal level. Binding of AMP to the γ-subunit causes allosteric activation of the kinase and induces a conformational change in the kinase domain that protects AMP KINASE from dephosphorylation of Thr-172.
# BioAssay Systems' cell-based ELISA measure phosphorylated AMP KINASE in whole cells and normalizes the signal to the total protein content. The antibody recognizes both α-subunits and, thus, can be used for cells from all tissues (human, mouse, rat). This simple and efficient assay eliminates the need for cell lysate preparation and can be used to study AMP KINASE regulation in short-term and long-term assays. In this assay, cells grown in 96-well plates are fixed and permeabilized in the wells. AMP KINASE phosphorylation (pAMPK) is measured using a fluorescent ELISA followed by total protein measurement in each well.
# A few illustrative compounds of the present invention were tested at 10 nM and the AMPkinase activation of the compounds is listed at Table 2: […]
# AMP KINASE [2] = assay: AMP KINASE activation, cell based ELISA in Hepatoma (Hep 2) liver cells; conditions: 30 m, over baseline of 100 (DMSO control)
# Description: AMP KINASE activation potential of the compounds was evaluated using cell based ELISA·Hepatoma (Hep 2) liver cells were maintained in a T 75 culture flask-containing 25 mM DMEM+10% fetal calf serum. The cells were maintained in a T 75 culture flask-containing medium (DMEM+10% fetal calf serum). On reaching a confluence of 70 to 80%, the cells were seeded in a 96 well plate at a density of 40,000 cells per well in 25 mM DMEM+10% FCS medium. The plates were then incubated at 37° C. with 5% CO2 for 24 hours. Various concentrations of drugs were prepared in DMSO and diluted to required concentration with the medium and incubated at 37° C. with 5% CO2 for 30 min and 1 h for Epicatechin analogs and 11-BHP analogs respectively. Metformin was used as positive control·Cells were fixed with 4% formaldehyde for 30 minutes at room temperature and washed three times with PBS containing 0.1% Triton X-100. Endogenous peroxidase was quenched with 1% H2O2 in PBS-T (0.1% Tween 20) for 30 minutes and washed three times in PBS-T. Cells were blocked with 1% BSA in PBS-T for 1 hour. The cells were incubated with 1:1000 dilution primary antibody (Phospho-AMPKα ([…]) Rabbit mAb, Cell Signaling in PBS-T containing 5% BSA at 4° C. overnight. The cells were then washed three times with PBS-T for 5 minutes and incubated with 1:1000 dilution secondary antibody (Anti-rabbit IgG, HRP-linked Antibody, Cell Signaling) in PBS-T with 1% BSA for 1 hour at RT·Cells were washed three times with PBS-T for 5 minutes The cells were incubated with 100 μl TMB substrate solution for 30 minutes and the reaction was stopped with 100 μl of 2N H2SO4. Then the plate was read at 450 nm using ELISA plate reader and absorbance recorded. % activity was calculated using DMSO control as 100%.
SMILES,AMPKinase Activation at 10 nM (AMP KINASE [1]),further results
"C[C@]12CCC(=O)NC1=CCC1C2[C@@H](O)C[C@@]2(C)C1CCC21OCCO1 (stereo partly drawn) [Compound 1017, (4a′R,5′S,6a′S)-5′-hydroxy-4a′,6a′-dimethyl-3′,4′,4a′,4b′,5′,6′,6a′,8′,- 9′,9a′,9b′,10′-dodecahydrospiro-[[1,3]dioxolane-2,7′-indeno[5,4-f]-quinolin]-2′(1′H)-one]",2.08,
"CC(=O)C1CCC2C3CC=C4NC(=O)CC[C@]4(C)C3[C@@](C)(O)C[C@]12C (stereo partly drawn) [Compound 1008, (4aR,5S,6aS)-7-acetyl-4,4a,4b,5,- 6,6a,7,8,9,9a,9b,10-dodecahydro-5-hydroxy-4a,5,6a-trimethyl-1H-indeno[5,4-f]quinolin-2(3H)-one]",1.97,
"CC(C)(O)[C@H]1CCC2C3CC=C4NC(=O)CC[C@]4(C)C3[C@@H](O)C[C@@]21C (stereo partly drawn) [Compound 1038, (4aR,5S,6aS,7S)-5-hydroxy-7-(2-hydroxypropan-2-yl)-4a,6a-dimethyl-4,4a,4b,5,6,6a,7,8,9,- 9a,9b,10-dodecahydro-1H-indeno-[5,4-f]quinolin-2(3H)-one]",1.70,
"C[C@]12C=CC(=O)C=C1CCC1C2[C@@H](O)C[C@@]2(C)C1CC[C@@H]2C(=O)O (stereo partly drawn) [Compound 1013, (10R,11S,13S,17S)-11-hydroxy-10,13-dimethyl-3-oxo-6,7,8,9,- 10,11,12,13,14,15,16,17-dodeca-hydro-3H-cyclopenta[a]-phenan-threne-17-carboxylic acid]",1.79,
"COc1ccc2c(c1)CCC1C2[C@@H](O)C[C@]2(C)C(C(C)O)CCC12 (stereo partly drawn) [Compound 1030, (11S,13S)-17-(1-hydroxyethyl)-3-methoxy-13-methyl-7,8,9,11,12,- 13,14,15,16,17-decahydro-6H-cyclopenta[a]phenanthren-11-ol]",1.51,
"C[C@]12CCC(=O)NC1=CCC1C2[C@](C)(O)C[C@]2(C)C(=O)CCC12 (stereo partly drawn) [Compound 1018, (4aR,5R,6aS)-5-hydroxy-4a,5,6a-trimethyl-4,4a,4b,5,6,6a,9,9a,9b,- 10-decahydro-1H-indeno[5,4-f]-quinoline-2,7(3H,8H)-dione]",2.19,
"CN(C)C(=O)[C@H]1CCC2C3CCC4=CC(=O)C=C[C@]4(C)C3[C@@H](O)C[C@@]21C (stereo partly drawn) [Compound 1014, (10R,11S,13S,17S)-11-hydroxy-N,N,10,13-tetramethyl-3-oxo-6,7,8,9,10,11,12,13,14,15,16,17-dodecahydro-3H-cyclopenta[a]-phenanthrene-17-carboxamide]",1.80,
"CC1([C@H]2CCC3C4CC=C5NC(=O)CC[C@]5(C)C4[C@@](C)(O)C[C@@]32C)OCCO1 (stereo partly drawn) [Compound 1026, (4aR,5S,6aS,7S)-5-hydxoxy-4a,5,6a-trimethyl-7-(2-methyl-1,3-dioxolan-2-yl)-4,4a,4b,5,6,6a,- 7,8,9,9a,9b,10-dodecahydro-1H-indeno[5,4-f]quinolin-2(3H)-one]",1.69 and 2.17,
"CN(C)C(=N)N=C(N)N [Metformin, reference compound]",,% pAMPK (AMP KINASE [2]; 2 mM): 121%
"C[C@]12CCC(=O)NC1=CCC1C2[C@@H](O)C[C@]2(C)C(=O)CCC12 (stereo partly drawn) [Compound 1005, (4aR,5S,6aS)5-hydroxy-4a,6a-dimethyl-4,4a,4b,5,6,6a,9,9a,9b,- 10-decahydro-1H-indeno[5,4-f]-quinoline-2,7(3H,8H)-dione]",1.85,
"C[C@]12CCC(=O)NC1=CCC1C2[C@@H](O)C[C@@]2(C)C1CC[C@@H]2C(=O)O (stereo partly drawn) [Compound 1027, (4aR,5S,6aS,7S)-5-hydroxy-4a,6a-dimethyl-2-oxo-2,3,4,4a,4b,5,6,- 6a,7,8,9,9a,9b,10-tetradecahydro-1H-indeno[5,4-f]quinoline-7-carboxylic acid]",1.85,
"C[C@]12CCC(=O)NC1CCC1C3CCC(O)[C@@]3(C)C[C@H](O)C12 (stereo partly drawn) [Compound 1023, (4aR,5S,6aS)-5,7-dihydroxy-4a,6a-dimethyltetradecahydro-1H-indeno[5,4-f]quinolin-2(3H)-one]",2.46,
"C[C@]12CCC(=O)NC1=CCC1C2[C@@H](O)C[C@]2(C)/C(=N\O)CCC12 (stereo partly drawn) [Compound 1021, (4aR,5S,6aS,Z)-5-hydroxy-7-(hydroxyimino)-4a,6a-dimethyl-4,4a,4b,5,6,6a,7,8,9,9a,9b,10-dodecahydro-1H-indeno[5,4-f]-quinolin-2(3H)-one]",2.23,
"CC(=O)[C@H]1CCC2C3CCC4=CC(=O)C=C[C@]4(C)C3[C@@H](O)C[C@@]21C (stereo partly drawn) [Compound 1015, (10R,11S,13S,17S)-17-acetyl-11-hydroxy-10,13-dimethyl-6,7,8,9,- 10,11,12,13,14,13,16,17-dodeca-hydro-3H-cyclopenta[a]-phenan-thren-3-one]",2.23,
"CC(=O)C1CC[C@H]2[C@@H]3CCC4=CC(=O)CC[C@]4(C)[C@H]3[C@@H](O)C[C@]12C (stereo partly drawn) [Compound 1040, (8S,9S,10R,11S,13S,14S)-17-acetyl-11-hydroxy-10,13-dimethyl-6,7,8,9,10,11,12,13,- 14,15,16,17-dodecahydro-1H-cyclopenta[a]phenanthren-3(2H)-one]",,% pAMPK (AMP KINASE [2]; 0.1 nM): 118%
"CC(O)[C@H]1CCC2C3CCC4=CC(=O)C=C[C@]4(C)C3[C@@H](O)C[C@@]21C (stereo partly drawn) [Compound 1016, (10R,11S,13S,17S)-11-hydroxy-17-((R)-1-hydroxyethyl)-10,13-dimethyl-6,7,8,9,10,11,12,13,- 14,15,16,17-dodecahydro-3H-cyclopenta[a]phenanthren-3-one]",2.38,
"CN1C(=O)CC[C@@]2(C)C1=CCC1C3CCC(O)[C@@]3(C)C[C@H](O)C12 (stereo partly drawn) [Compound 1022, (4aR,5S,6aS)-5,7-dihydroxy-1,4a,6a-trimethyl-4,4a,4b,5,6,6a,- 7,8,9,9a,9b,10-dodecahydro-1H-indeno[5,4-f]quinolin-2(3H)-one]",2.87,
"CC1([C@H]2CCC3C4CC=C5NC(=O)CC[C@]5(C)C4[C@@H](O)C[C@@]32C)OCCO1 (stereo partly drawn) [Compound 1025, (4aR,5S,6aS,7S)-5-hydroxy-4a,6a-dimethyl-7-(2-methyl-1,3-dioxolan-2-yl)-4,4a,4b,5,6,6a,- 7,8,9,9a,9b,10-dodecahydro-1H-indeno[5,4-f]quinolin-2(3H)-one]",2.11,
"Cc1ccc(O)c2c1C1C(CC2)C2CC[C@H](C(=O)O)[C@@]2(C)C[C@@H]1O (stereo partly drawn) [Compound 1035, (11S,13S,17S)-4,11-dihydroxy-1,13-diinethyl-7,8,9,11,12,13,- 14,15,16,17-decahydro-6H-cyclopenta[a]phenanthrene-17-carboxylic acid]",1.76,
"C[C@]12C[C@H](O)C3C(CC=C4NC(=O)CC[C@@]43C)C1CCC2O (stereo partly drawn) [Compound 1019, (4aR,5S,6aS)-5,7-dihydroxy-4a,6a-dimethyl-4,4a,4b,5,6,6a,- 7,8,9,9a,9b,10-dodecahydro-1H-indeno[5,4-f]quinolin-2(3H)-one]",2.23,
